The source of these data is ChEMBL document CHEMBL4002563 (Eur J Med Chem, 2017).

Data set [1] can be described thus: Drug-uptake in multidrug-resistant mouse EMT6 cells at 100 uM measured after 1 hr by HPLC method. As to conditions: emt6, 1 h. It is filed as ADME, cell-based.
In data set [2] the target is Serine/threonine-protein kinase PAK 1 (Homo sapiens, UniProt Q13153). Put plainly: Inhibition of PAK1 in human A549 cells using myelin basic protein as substrate preincubated for 24 hrs followed by PAK1 immunoprecipation and substrate addition measured after 60 mins by ATP-Glo kinase assay.
Sequence of Serine/threonine-protein kinase PAK 1 (Q13153 whole entry): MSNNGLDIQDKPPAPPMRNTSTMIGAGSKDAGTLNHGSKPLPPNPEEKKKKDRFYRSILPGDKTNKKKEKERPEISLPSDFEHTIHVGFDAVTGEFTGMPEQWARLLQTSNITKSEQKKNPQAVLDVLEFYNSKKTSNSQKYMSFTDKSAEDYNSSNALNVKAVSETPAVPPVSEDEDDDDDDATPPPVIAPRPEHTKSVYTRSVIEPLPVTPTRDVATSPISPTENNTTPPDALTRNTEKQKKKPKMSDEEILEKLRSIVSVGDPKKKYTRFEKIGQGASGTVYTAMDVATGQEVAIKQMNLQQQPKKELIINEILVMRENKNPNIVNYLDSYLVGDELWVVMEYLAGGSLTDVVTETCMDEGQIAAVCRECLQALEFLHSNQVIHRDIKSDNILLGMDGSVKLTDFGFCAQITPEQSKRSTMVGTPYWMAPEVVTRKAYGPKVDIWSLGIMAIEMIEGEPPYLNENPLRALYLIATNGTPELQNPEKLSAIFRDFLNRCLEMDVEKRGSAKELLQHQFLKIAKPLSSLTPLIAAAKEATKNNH
Data set [3] deals with EMT6. In words: Cytotoxicity against multidrug-resistant mouse EMT6 cells at 100 uM measured after 24 hrs by MTT assay. The data set is classed as functional, cell-based.
The target in data set [4] is Rho GTPase Rac1/CDC42 (Homo sapiens, UniProt P60953+P63000). Put plainly: Inhibition of RAC1/CDC42 in human ovarian cancer cells. The data set is classed as cell-based.
The target in data set [5] is T1, Prostaglandin G/H synthase 2 (Homo sapiens, UniProt P35354).
T1 sequence (P35354 whole entry): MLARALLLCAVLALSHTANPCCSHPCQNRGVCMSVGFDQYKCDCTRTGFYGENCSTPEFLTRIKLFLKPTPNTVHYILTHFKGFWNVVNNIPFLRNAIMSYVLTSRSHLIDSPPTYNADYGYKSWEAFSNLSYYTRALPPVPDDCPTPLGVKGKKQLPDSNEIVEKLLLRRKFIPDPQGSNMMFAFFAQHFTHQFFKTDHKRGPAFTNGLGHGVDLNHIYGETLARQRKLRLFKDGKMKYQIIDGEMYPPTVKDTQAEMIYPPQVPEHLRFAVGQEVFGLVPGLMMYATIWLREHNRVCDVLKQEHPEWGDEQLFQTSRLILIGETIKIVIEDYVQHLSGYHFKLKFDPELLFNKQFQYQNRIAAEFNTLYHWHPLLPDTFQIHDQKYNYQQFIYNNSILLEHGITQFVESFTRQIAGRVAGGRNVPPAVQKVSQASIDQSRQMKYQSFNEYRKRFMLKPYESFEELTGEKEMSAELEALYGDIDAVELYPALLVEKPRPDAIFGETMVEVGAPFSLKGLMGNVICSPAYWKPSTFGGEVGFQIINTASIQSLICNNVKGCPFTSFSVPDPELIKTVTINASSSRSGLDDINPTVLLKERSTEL
In words: Inhibition of recombinant human COX2 using arachidonic acid as substrate measured after 2 to 5 mins.

Data set [6] can be described thus: Inhibition of PAK1/COX2 in human A549 cells harboring Ki-RAS mutant assessed as cell growth inhibition measured after 72 hrs by MTT assay. It is filed as cell-based. The settings on record: A549, 72 h.
In data set [7] the test system is B16-F10. Put plainly: Cytotoxicity against PAK1-independent mouse B16F10 cells assessed as cell growth inhibition measured after 72 hrs by MTT assay. The data set is classed as functional, cell-based. The settings on record: B16-F10, 72 h.
Data set [8] has as its system LIM1899. In words: Cytotoxicity against human LIM1899 cells up to 100 uM measured after 24 hrs by trypan blue assay. It is filed as functional, cell-based.
The nature of data set [9]: Inhibition of PAK1/COX2 in human A549 cells harboring Ki-RAS mutant assessed as cell growth inhibition measured after 72 hrs by trypan blue assay. The data set is classed as cell-based. The settings on record: A549, 72 h.
The nature of data set [10]: Drug-uptake in multidrug-resistant mouse EMT6 cells at 100 uM measured after 6 hrs by HPLC method. The data set is classed as ADME, cell-based. The settings on record: emt6, 6 h.
A short description of data set [11]: Drug metabolism in human A549 cells assessed as mitochondrial reductase mediated azo dye formation by colorimetric method. The data set is classed as ADME, cell-based.

Active and inactive are the calls of the source. The rule behind the calls is not given here.

The compound `O=C(c1ccccc1)c1ccc2n1CCC2C(=O)O` (stereo not given) [KETOROLAC] returned a Drug uptake in data set [1] of 0.37 nmol. The concentration for half-maximal inhibition (IC50) in data set [2] amounted to 36 µM; in data set [4], 2 µM; in data set [5], 0.14 µM; in data set [6], 13 µM; in data set [7], 30 µM. Moreover, in data set [3], the outcome was inactive.

As to `COc1ccccc1-n1cc(COC(=O)C2CCn3c(C(=O)c4ccccc4)ccc32)nn1` (stereo not given), the Drug uptake in [1] is 3.75 nmol; in data set [10] it was “Not Active”. In addition, the IC50 in data set [2] stood at 0.065 µM; in [9], 0.024 µM. For the same compound, the result in data set [3] and in data set [8] was inactive. The Drug metabolism result in data set [11] was “Metabolite_Detected”.

For `O=C(c1ccccc1)c1ccc2n1CC[C@H]2C(=O)O`, the IC50 in data set [4] was 1 µM.
